Data reported in patent US7138361B2, “Herbicidal heterocycles” (E. I. du Pont de Nemours and Company, priority 2000, dated 2006).

How the values were obtained:
Assay in all cases: Test C preemergence
Type in all cases: in vivo
[1] = tested on: morningglory (Ipomoea hederacea)
In short: (§1)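 Each compound was dissolved in a non-phytotoxic solvent system containing a surfactant and sprayed either on freshly planted seeds (preemergence) or on young plants, 2 to 18 cm high (postemergence). Ratings after 12 to 14 greenhouse days ran from 0, no effect, to 100, complete control.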

[2] = tested on: giant foxtail (Setaria faberii)
In short: as §1

[3] = tested on: Surinam grass (Brachiaria decumbens)
In short: as §1

Nightshade = tested on: Nightshade
kochia (Kochia scoparia) = tested on: kochia (Kochia scoparia)
In short: as §1

[4] = tested on: goosegrass (Eleusine indica)
In short: as §1

[5] = tested on: bermudagrass (Cynodon dactylon)
In short: as §1

[6] = tested on: crabgrass (Digitaria sanguinalis)
In short: as §1

[7] = tested on: woolly cupgrass (Eriochloa villosa)
In short: as §1

corn (Zea mays) = tested on: corn (Zea mays)
In short: as §1

[8] = tested on: yellow nutsedge (Cyperus esculentus)
In short: as §1

Sunflower [9] = conditions: Rate 125 g/ha; scale 0 to 100, 0 no effect, 100 complete control
soybean (Glycine max) = tested on: soybean (Glycine max)
In short: as §1

[10] = tested on: velvetleaf (Abutilon theophrasti)
In short: as §1

[11] = tested on: common ragweed (Ambrosia elatior)
In short: as §1

[12] = tested on: cocklebur (Xanthium strumarium)
In short: as §1

[13] = tested on: pigweed (Amaranthus retroflexus)
In short: as §1

[14] = tested on: johnsongrass (Sorghum halepense)
In short: as §1

[15] = tested on: lambsquarters (Chenopodium album)
In short: as §1

Sunflower [16] = conditions: Rate 250 g/ha, scale 0 to 100, 0 no effect, 100 complete control
[17] = Rate 125 g/ha, scale 0 to 100, 0 no effect, 100 complete control
[18] = preemergence, Rate 62 g/ha, scale 0 to 100
[19] = preemergence, Rate 500 g/ha, visual evaluation after 12 to 14 days
[20] = preemergence, Rate 250 g/ha, scale 0 to 100, 0 no effect, 100 complete control

Question: Which “Plant response rating, Morningglory” value [1, 17] does the source give for `CCCC(C)c1ccn(C2OCN(c3cccc(C(F)(F)F)c3)C2=O)n1` (stereo not shown) [Compound 89] here?
Answer: 0

Question: And the “Plant response rating, Morningglory” value [1, 18]?
Answer: 0

Question: And the “Plant response rating (0 to 100), Morningglory” value [1, 19]?
Answer: 0

Question: What about the “Plant response rating, Morningglory” value [1, 20] of the same molecule?
Answer: 0

Question: What about the “Plant response rating, Foxtail, Giant” value [2, 17] of the same molecule?
Answer: 0

Question: And the “Plant response rating, Foxtail, Giant” value [2, 18]?
Answer: 0

Question: And the “Plant response rating (0 to 100), Foxtail, Giant” value [2, 19]?
Answer: 100

Question: And the “Plant response rating, Foxtail, Giant” value [2, 20]?
Answer: 0

Question: What about the “Plant response rating, Surinam grass” value [3, 17] of the same molecule?
Answer: 10

Question: And the “Plant response rating, Surinam grass” value [3, 18]?
Answer: 0

Question: And the “Plant response rating (0 to 100), Surinam grass” value [3, 19]?
Answer: 65

Question: And the “Plant response rating, Surinam grass” value [3, 20]?
Answer: 30

Question: And the “Plant response rating, Nightshade” value (Nightshade; Rate 62 g/ha, scale 0 to 100)?
Answer: 0

Question: And the “Plant response rating, Nightshade” value (Nightshade; [17])?
Answer: 0

Question: What about the “Plant response rating, Nightshade” value (Nightshade; Rate 250 g/ha, scale 0 to 100, 0 no effect, 100 complete control) of the same molecule?
Answer: 0

Question: And the “Plant response rating, Kochia” value (kochia (Kochia scoparia); [17])?
Answer: 70

Question: What about the “Plant response rating, Kochia” value (kochia (Kochia scoparia); [18]) of the same molecule?
Answer: 20

Question: What about the “Plant response rating (0 to 100), Kochia” value (kochia (Kochia scoparia); [19]) of the same molecule?
Answer: 100

Question: What about the “Plant response rating, Kochia” value (kochia (Kochia scoparia); [20]) of the same molecule?
Answer: 90

Question: And the “Plant response rating, Goosegrass” value [4, 17]?
Answer: 100

Question: What about the “Plant response rating, Goosegrass” value [4, 18] of the same molecule?
Answer: 95

Question: What about the “Plant response rating (0 to 100), Goosegrass” value [4, 19] of the same molecule?
Answer: 100

Question: And the “Plant response rating, Goosegrass” value [4, 20]?
Answer: 100

Question: And the “Plant response rating, Bermudagrass” value [5, 17]?
Answer: 90

Question: What about the “Plant response rating, Bermudagrass” value [5, 18] of the same molecule?
Answer: 10

Question: What about the “Plant response rating (0 to 100 where 0 is no effect and 100 is complete control), Bermudagrass” value [5, 19] of the same molecule?
Answer: 100

Question: And the “Plant response rating, Bermudagrass” value [5, 20]?
Answer: 90

Question: And the “Plant response rating, Crabgrass” value [6, 17]?
Answer: 100

Question: And the “Plant response rating, Crabgrass” value [6, 18]?
Answer: 20

Question: What about the “Plant response rating (0 to 100), Crabgrass” value [6, 19] of the same molecule?
Answer: 100

Question: What about the “Plant response rating, Crabgrass” value [6, 20] of the same molecule?
Answer: 100

Question: What about the “Plant response rating, Cupgrass, Woolly” value [7, 17] of the same molecule?
Answer: 0

Question: What about the “Plant response rating, Cupgrass, Woolly” value [7, 18] of the same molecule?
Answer: 0

Question: What about the “Plant response rating (0 to 100), Cupgrass, Woolly” value [7, 19] of the same molecule?
Answer: 70

Question: And the “Plant response rating, Cupgrass, Woolly” value [7, 20]?
Answer: 40

Question: What about the “Plant response rating, Corn” value (corn (Zea mays); [17]) of the same molecule?
Answer: 25

Question: And the “Plant response rating, Corn” value (corn (Zea mays); [18])?
Answer: 10

Question: What about the “Plant response rating (0 to 100), Corn” value (corn (Zea mays); [19]) of the same molecule?
Answer: 30

Question: What about the “Plant response rating, Corn” value (corn (Zea mays); [20]) of the same molecule?
Answer: 30

Question: And the “Plant response rating, Nutsedge” value [8, 17]?
Answer: 0

Question: What about the “Plant response rating, Nutsedge” value [8, 18] of the same molecule?
Answer: 0

Question: And the “Plant response rating (0 to 100), Nutsedge” value [8, 19]?
Answer: 0

Question: And the “Plant response rating, Nutsedge” value [8, 20]?
Answer: 0

Question: And the “Plant response rating, Sunflower” value (Sunflower [9])?
Answer: 0

Question: And the “Plant response rating, Soybean” value (soybean (Glycine max); [17])?
Answer: 0

Question: And the “Plant response rating, Soybean” value (soybean (Glycine max); [18])?
Answer: 0

Question: And the “Plant response rating (0 to 100), Soybean” value (soybean (Glycine max); [19])?
Answer: 30

Question: And the “Plant response rating, Soybean” value (soybean (Glycine max); [20])?
Answer: 0

Question: And the “Plant response rating, Velvetleaf” value [10, 17]?
Answer: 0

Question: And the “Plant response rating, Velvetleaf” value [10, 18]?
Answer: 0

Question: And the “Plant response rating (0 to 100), Velvetleaf” value [10, 19]?
Answer: 10

Question: And the “Plant response rating, Velvetleaf” value [10, 20]?
Answer: 0

Question: And the “Plant response rating, Ragweed, Common” value [11, 17]?
Answer: 0

Question: And the “Plant response rating, Ragweed, Common” value [11, 18]?
Answer: 0

Question: What about the “Plant response rating (0 to 100), Ragweed, Common” value [11, 19] of the same molecule?
Answer: 0

Question: What about the “Plant response rating, Ragweed, Common” value [11, 20] of the same molecule?
Answer: 0

Question: And the “Plant response rating, Cocklebur” value [12, 17]?
Answer: 0

Question: What about the “Plant response rating, Cocklebur” value [12, 18] of the same molecule?
Answer: 0

Question: What about the “Plant response rating (0 to 100), Cocklebur” value [12, 19] of the same molecule?
Answer: 10

Question: What about the “Plant response rating, Cocklebur” value [12, 20] of the same molecule?
Answer: 10

Question: What about the “Plant response rating, Pigweed” value [13, 17] of the same molecule?
Answer: 0

Question: What about the “Plant response rating, Pigweed” value [13, 18] of the same molecule?
Answer: 0

Question: And the “Plant response rating (0 to 100), Pigweed” value [13, 19]?
Answer: 100

Question: What about the “Plant response rating, Pigweed” value [13, 20] of the same molecule?
Answer: 50

Question: And the “Plant response rating, Johnsongrass” value [14, 17]?
Answer: 70

Question: And the “Plant response rating, Johnsongrass” value [14, 18]?
Answer: 50

Question: What about the “Plant response rating (0 to 100), Johnsongrass” value [14, 19] of the same molecule?
Answer: 100

Question: What about the “Plant response rating, Johnsongrass” value [14, 20] of the same molecule?
Answer: 70

Question: What about the “Plant response rating, Lambsquarters” value [15, 17] of the same molecule?
Answer: 100

Question: And the “Plant response rating, Lambsquarters” value [15, 18]?
Answer: 80

Question: What about the “Plant response rating (0 to 100), Lambsquarters” value [15, 19] of the same molecule?
Answer: 100

Question: What about the “Plant response rating, Lambsquarters” value [15, 20] of the same molecule?
Answer: 100

Question: And the “Plant response rating, Sunflower” value (Sunflower [16])?
Answer: 0
